Here are results for five molecules from patent US12365696B2, “Small-molecule focal adhesion kinase (FAK) inhibitors” (DANA-FARBER CANCER INSTITUTE, INC., priority 2019, dated 2025).

Test [1] concerns the target PTK2 (FAK) (Homo sapiens (Human), UniProt Q05397). The test is described as follows: Z′-LYTE kinase assay (SelectScreen Biochemical Kinase Profiling), enzymatic IC50. As to conditions: enzymatic, Z′-LYTE; read-out: FAK IC50. The protocol: Enzymatic IC50 data was obtained through ThermoFisher Scientific SelectScreen™ Biochemical Kinase Profiling Service, using a Z′-LYTE™ kinase-specific assay, as described below.
The test compounds were screened in 1% dimethyl sulfoxide (DMSO) (final) in the well. For 10 point titrations, 3-fold serial dilutions were conducted from the starting concentration.
All peptide/kinase mixtures were diluted to a 2× working concentration in the appropriate kinase buffer (see section kinase specific assay conditions for a complete description).
All ATP solutions were diluted to a 4× working concentration in kinase buffer (50 mM 4-(2-hydroxyethyl)-1-piperazineethanesulfonic acid (HEPES) pH 7.5, 0.01% BRIJ-35, 10 mM MgCl2, 1 mM ethylene glycol-bis(β-aminoethyl ether)-N,N,N′,N′-tetraacetic acid (EGTA)). ATP Km apparent was previously determined using a Z′-LYTE assay.
The development reagent was diluted in development buffer (see section kinase-specific assay conditions—direct and cascade for a complete description).
Using a bar-coded Corning, low volume NBS, black 384-well plate (Corning Cat. #4514), 100 nL of 100× test compound in 100% DMSO was added. […] The plate was then shaken for 30 seconds and held at room temperature for a 60 minute kinase reaction incubation period. At which point 5 μL of development reagent solution was added and the plate was shaken for 30 seconds. The plate was held again at room temperature for a 60 minute development reaction incubation period and then read on a fluorescence plate reader and analyzed.
The 2×PTK2 (FAK)/Tyr 07 mixture was prepared in 50 mM HEPES pH 7.5, 0.01% BRIJ-35, 10 mM MgCl2, 1 mM EGTA. […] After the 1 hour kinase reaction incubation period, 5 μL of a 1:16 dilution of development reagent B was added.
SelectScreen Kinase Profiling Service uses XLfit from ID Business Solutions (IDBS). The dose response curve was curve fit to model number 205 (sigmoidal dose-response model).

Test [2] relates to MDA-MB-231 cells. Kind of test: 2D-adherent monolayer cell viability (Cell Titer-Glo), 120 hrs. As to conditions: Homo sapiens. The class given is cell-based. The protocol:
For 2D-adherent monolayer experiments, MDA-MB-231 cells were plated in 384-well format and allowed to adhere overnight. Cells were treated with indicated molecules from compound stock plates using a JANUS® Workstation pin tool for 120 hrs. To measure cell viability, Cell Titer-Glo® was added to wells for 15 minutes at room temperature and luminescence was measured on an EnVision™ 2104 Multilabel Plate Reader.
Inventive compound treatment (0.00063-20 μM) led to antiproliferative effects in MDA-MB-231 cells cultured as 2D-adherent monolayers or as ultra-low adherent 3D-spheroid suspensions (Table 5).
On the technique in general: ATP-based viability assays read luminescence as a measure of living cells.

Test [3] relates to MDA-MB-231 cells. Kind of test: ultra-low adherent 3D-spheroid suspension cell viability (3D Cell Titer-Glo), 120 hours. In kind it is cell-based. Particulars: Homo sapiens. The protocol: For ultra-low adherent 3D-spheroid suspensions, MDA-MB-231 cells were plated in 384-well format in media containing 10% Matrigel® and allowed to form spheroids overnight. Cells were treated with indicated molecules from compound stock plates using a JANUS® Workstation pin tool for 120 hours. To measure cell viability, 3D Cell Titer-Glo® was added to wells for 15 minutes at room temperature and luminescence was measured on an EnVision™ 2104 Multilabel Plate Reader.

For orientation: IC50 means the concentration at which inhibition is half-maximal.

Each structure is given as a SMILES string.

PTK2 (FAK), sequence (Q05397 whole entry): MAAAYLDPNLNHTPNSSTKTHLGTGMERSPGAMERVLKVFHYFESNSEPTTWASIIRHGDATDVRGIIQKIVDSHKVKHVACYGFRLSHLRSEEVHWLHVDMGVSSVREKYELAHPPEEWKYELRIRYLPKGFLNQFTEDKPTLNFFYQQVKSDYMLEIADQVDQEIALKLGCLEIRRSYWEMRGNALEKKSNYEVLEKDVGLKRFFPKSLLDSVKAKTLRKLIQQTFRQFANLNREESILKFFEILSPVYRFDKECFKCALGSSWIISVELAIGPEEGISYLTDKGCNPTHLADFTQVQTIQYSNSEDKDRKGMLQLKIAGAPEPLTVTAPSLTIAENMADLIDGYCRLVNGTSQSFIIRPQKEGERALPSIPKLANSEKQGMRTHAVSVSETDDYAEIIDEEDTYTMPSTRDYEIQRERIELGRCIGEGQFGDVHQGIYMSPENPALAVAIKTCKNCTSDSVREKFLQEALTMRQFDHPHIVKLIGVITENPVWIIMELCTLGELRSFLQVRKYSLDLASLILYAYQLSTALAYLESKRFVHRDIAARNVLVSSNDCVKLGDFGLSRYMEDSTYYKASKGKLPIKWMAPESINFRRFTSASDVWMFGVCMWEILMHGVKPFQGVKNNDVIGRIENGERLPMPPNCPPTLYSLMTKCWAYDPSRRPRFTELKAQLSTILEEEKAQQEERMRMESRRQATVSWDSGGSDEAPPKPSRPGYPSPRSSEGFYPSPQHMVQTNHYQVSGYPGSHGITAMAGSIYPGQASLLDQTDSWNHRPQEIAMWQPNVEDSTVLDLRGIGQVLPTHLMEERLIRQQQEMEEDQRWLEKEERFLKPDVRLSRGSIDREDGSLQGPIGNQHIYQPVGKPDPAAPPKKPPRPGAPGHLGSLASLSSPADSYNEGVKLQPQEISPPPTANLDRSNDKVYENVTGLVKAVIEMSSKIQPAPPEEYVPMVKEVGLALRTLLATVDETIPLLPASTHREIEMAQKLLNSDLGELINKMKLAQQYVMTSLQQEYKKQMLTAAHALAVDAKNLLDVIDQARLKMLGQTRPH

In the case of `COc1cc(C(=O)N2CCC(N3CCN(C)CC3)CC2)ccc1Nc1ncc2c(n1)N(C)c1sc(C)nc1C(=O)N2C` [Compound 28, 6-((2-methoxy-4-(4-(4-methylpiperazin-1-yl)piperidine-1-carbonyl)phenyl)amino)-2,4,9-trimethyl-4,9-dihydro-10H-pyrimido[5,4-b]thiazolo[5,4-e][1,4]diazepin-10-one], the results for the IC50 in test [1], in test [2] and in test [3] were 77.7 nM, more than 10000 nM and more than 10000 nM, respectively.
Take `CCN1C(=O)c2nc(C)sc2N(C)c2nc(Nc3ccc(N4CCC(N5CCN(C)CC5)CC4)cc3OC)ncc21` [Compound 132, 9-ethyl-6-((2-methoxy-4-(4-(4-methylpiperazin-1-yl)piperidin-1-yl)phenyl)amino)-2,4-dimethyl-4,9-dihydro-10H-pyrimido[5,4-b]thiazolo[5,4-e][1,4]diazepin-10-one]: the results for the IC50 in test [1], in test [2] and in test [3] were 18.8 nM, more than 10000 nM and 930 nM, respectively.
In the same order, the values of `CCN1c2nc(Nc3ccc(N4CCC(N5CCN(C)CC5)CC4)cc3OC)ncc2N(C)C(=O)c2nc(C)sc21` [Compound 159, 4-ethyl-6-((2-methoxy-4-(4-(4-methylpiperazin-1-yl)piperidin-1-yl)phenyl)amino)-2,9-dimethyl-4,9-dihydro-10H-pyrimido[5,4-b]thiazolo[5,4-e][1,4]diazepin-10-one] are 22.9 nM, more than 10000 nM and more than 10000 nM.
In the same order, the values of `CNC(=O)c1ccc(Nc2ncc3c(n2)N(C)c2sc(C)nc2C(=O)N3C)cc1` [Compound 197, N-methyl-4-((2,4,9-trimethyl-10-oxo-9,10-dihydro-4H-pyrimido[5,4-b]thiazolo[5,4-e][1,4]diazepin-6-yl)amino)benzamide] are 173 nM, more than 10000 nM and 5900 nM.
In the same order, the values of `COc1cc(N2CCN(S(C)(=O)=O)CC2)ccc1Nc1ncc2c(n1)N(C)c1sc(C)nc1C(=O)N2C` [Compound 198, 6-((2-methoxy-4-(4-(methylsulfonyl)piperazin-1-yl)phenyl)amino)-2,4,9-trimethyl-4,9-dihydro-10H-pyrimido[5,4-b]thiazolo[5,4-e][1,4]diazepin-10-one] are 46.9 nM, more than 10000 nM and more than 10000 nM.
